Assay results: patent US20260256925A1, “INDAZOLE DERIVATIVES AS ESTROGEN RECEPTOR DEGRADERS” (REGENTS OF THE UNIVERSITY OF MICHIGAN, priority 2022, published 2026)

How the values were obtained:
ER = molecular target: T1, ER (Homo sapiens, UniProt P03372); assay: In-cell western blot analysis, relative ER percentage (compounds B1-B126); type: cell-based; details: ER degradation, 16 hours, read-out: ICW DC50
T1 construct: endogenous in cells; probably T47D or MCF-7
T1 sequence (P03372 1-595): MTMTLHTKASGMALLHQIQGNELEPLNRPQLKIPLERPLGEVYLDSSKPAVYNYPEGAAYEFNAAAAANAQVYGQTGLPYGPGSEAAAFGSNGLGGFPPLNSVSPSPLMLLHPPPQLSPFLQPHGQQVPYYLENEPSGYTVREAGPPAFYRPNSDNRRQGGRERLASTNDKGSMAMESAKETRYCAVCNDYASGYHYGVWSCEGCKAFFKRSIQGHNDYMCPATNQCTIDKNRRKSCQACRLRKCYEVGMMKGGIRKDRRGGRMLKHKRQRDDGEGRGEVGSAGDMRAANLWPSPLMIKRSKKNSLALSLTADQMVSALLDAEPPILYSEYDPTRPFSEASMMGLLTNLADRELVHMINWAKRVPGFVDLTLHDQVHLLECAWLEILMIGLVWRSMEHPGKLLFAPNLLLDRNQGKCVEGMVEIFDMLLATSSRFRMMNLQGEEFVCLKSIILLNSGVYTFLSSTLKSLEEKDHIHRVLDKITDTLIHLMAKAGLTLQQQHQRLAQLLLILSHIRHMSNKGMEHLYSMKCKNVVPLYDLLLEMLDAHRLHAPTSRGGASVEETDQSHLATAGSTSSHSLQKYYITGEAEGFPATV
Summary of the method: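 Readout was a two-colour infrared in-cell western of formaldehyde-fixed cells after 16 h compound exposure at 0.5% DMSO, with 40,000 or 10,000 cells/well plated the previous night. Relative ER percentage compares treated wells against untreated/DMSO-treated wells taken as 100%.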

[1] = Cell growth assay, WST-8 (compounds B1-B126); type: cell-based; details: 96 h; T47D cell line, WST-8, 4 days; read-out: Cell growth inhibition in T47D cell line IC50
Summary of the method: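 Read-out is WST-8 absorbance at 450 nm (2.5 h, 37° C) as a fraction of vehicle control, from three separate repeats. Compound exposure lasted 4 days, starting one day after plating 1500 cells/well.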

| Structure (SMILES) | DC50 (ER) | IC50 [1] |
| --- | --- | --- |
| C[C@@H]1Cc2c(ccc3[nH]ncc23)[C@@H](c2c(F)cc(NC3CN(CC(=O)N4CCN5c6ccc7c(c6OC[C@H]5C4)CN(C4CCC(=O)NC4=O)C7=O)C3)cc2F)N1CC(F)F (stereo partly drawn) [Compound B101, 3-((R)-7-(2-(3-((4-((6S,8R)-7-(2,2-difluoroethyl)-8-methyl-6,7,8,9-tetrahydro-3H-pyrazolo[4,3-f]isoquinolin-6-yl)-3,5-difluorophenyl)amino)azctidin-1-yl)acetyl)-1-oxo-1,3,5,5a,6,7,8,9-octahydro-2H-pyrazino[1′,2′:4,5][1,4]oxazino[2,3-e]isoindol-2-yl)piperidine-2,6-dione] | < 10 nM | 1 to 10 nM |
| C[C@@H]1Cc2c(ccc3[nH]ncc23)[C@@H](c2c(F)cc(N3CCC(CN4CCN5c6ccc7c(c6N(C)C[C@@H]5C4)CN(C4CCC(=O)NC4=O)C7=O)CC3)cc2F)N1CC(F)F (stereo partly drawn) [Compound B30, 3-((S)-7-((1-(4-((6S,8R)-7-(2,2-difluoroethyl)-8-methyl-6,7,8,9-tetrahydro-3H-pyrazolo[4,3-f]isoquinolin-6-yl)-3,5-difluorophenyl)piperidin-4-yl)methyl)-4-methyl-1-oxo-3,4,5,5a,6,7,8,9-octahydropyrazino[1,2-a]pyrrolo[3,4-f]quinoxalin-2(1H)-yl)piperidine-2,6-dione] | < 10 nM | 1 to 10 nM |
| C[C@@H]1Cc2c(ccc3[nH]ncc23)[C@@H](c2cnc(N3CCC4(CCC(CN5CCN6c7ccc8c(c7OC[C@H]6C5)CN([C@H]5CCC(=O)NC5=O)C8=O)CO4)CC3)nc2)N1CC(F)(F)F (stereo partly drawn) [Compound B125, (3S)-3-((5aR)-7-((9-(5-((6S,8R)-8-methyl-7-(2,2,2-trifluoroethyl)-6,7,8,9-tetrahydro-3H-pyrazolo[4,3-f]isoquinolin-6-yl)pyrimidin-2-yl)-1-oxa-9-azaspiro[5.5]undecan-3-yl)methyl)-1-oxo-1,3,5,5a,6,7,8,9-octahydro-2H-pyrazino[1′,2′:4,5][1,4]oxazino[2,3-e]isoindol-2-yl)piperidine-2,6-dione] | < 10 nM | < 1 nM |
| COc1cc(N2CC3(CCC(CN4CCN5c6ccc7c(c6OC[C@@H]5C4)CN(C4CCC(=O)NC4=O)C7=O)CC3)C2)ccc1[C@@H]1c2ccc3[nH]ncc3c2C[C@@H](C)N1CC(F)F (stereo partly drawn) [Compound B85, 3-((S)-7-((2-(4-((6S,8R)-7-(2,2-difluoroethyl)-8-methyl-6,7,8,9-tetrahydro-3H-pyrazolo[4,3-f]isoquinolin-6-yl)-3-methoxyphenyl)-2-azaspiro[3.5]nonan-7-yl)methyl)-1-oxo-1,3,5,5a,6,7,8,9-octahydro-2H-pyrazino[1′,2′:4,5][1,4]oxazino[2,3-e]isoindol-2-yl)piperidine-2,6-dione] | 10 to 100 nM | > 10 nM |
| C[C@@H]1Cc2c(ccc3[nH]ncc23)[C@@H](c2ccc(N3CCC4(CCC(CN5CCC6(CC5)COc5c6ccc6c5CN([C@H]5CCC(=O)NC5=O)C6=O)CO4)CC3)nn2)N1CC(F)(F)F (stereo partly drawn) [Compound B128, (3S)-3-(1′-((9-(6-((6S,8R)-8-methyl-7-(2,2,2-trifluoroethyl)-6,7,8,9-tetrahydro-3H-pyrazolo[4,3-f]isoquinolin-6-yl)pyridazin-3-yl)-1-oxa-9-azaspiro[5.5]undecan-3-yl)methyl)-6-oxo-6,8-dihydro-2H,7H-spiro[furo[2,3-e]isoindole-3,4′-piperidin]-7-yl)piperidine-2,6-dione] | < 10 nM | < 1 nM |
| COc1cc(N2CCC3(CC2)OCC(CN2CCN4c5ccc6c(c5OC[C@@H]4C2)CN([C@@H]2CCC(=O)NC2=O)C6=O)CO3)ccc1[C@@H]1c2ccc3[nH]ncc3c2C[C@@H](C)N1CC(F)F [Compound B116, (R)-3-((S)-7-((9-(4-((6S,8R)-7-(2,2-difluoroethyl)-8-methyl-6,7,8,9-tetrahydro-3H-pyrazolo[4,3-f]isoquinolin-6-yl)-3-methoxyphenyl)-1,5-dioxa-9-azaspiro[5.5]undecan-3-yl)methyl)-1-oxo-1,3,5,5a,6,7,8,9-octahydro-2H-pyrazino[1′,2′:4,5][1,4]oxazino[2,3-e]isoindol-2-yl)piperidine-2,6-dione] | < 10 nM | < 1 nM |
| C[C@@H]1Cc2c(ccc3[nH]ncc23)[C@@H](c2c(F)cc(N3CC4(CN(CC(=O)N5CCN6c7ccc8c(c7OC[C@H]6C5)CN(C5CCC(=O)NC5=O)C8=O)C4)C3)cc2F)N1CC(F)F (stereo partly drawn) [Compound B98, 3-((R)-7-(2-(6-(4-((6S,8R)-7-(2,2-difluoroethyl)-8-methyl-6,7,8,9-tetrahydro-3H-pyrazolo[4,3-f]isoquinolin-6-yl)-3,5-difluorophenyl)-2,6-diazaspiro[3.3]heptan-2-yl)acetyl)-1-oxo-1,3,5,5a,6,7,8,9-octahydro-2H-pyrazino[1′,2′:4,5][1,4]oxazino[2,3-e]isoindol-2-yl)piperidine-2,6-dione] | < 10 nM | < 1 nM |
| COc1cc(N2CCC3(CC2)CC(CN2CCN4c5ccc6c(c5OC[C@H]4C2)CN(C2CCC(=O)NC2=O)C6=O)CO3)ccc1[C@@H]1c2ccc3[nH]ncc3c2C[C@@H](C)N1CC(F)F (stereo partly drawn) [Compound B80, 3-((5aR)-7-((8-(4-((6S,8R)-7-(2,2-difluoroethyl)-8-methyl-6,7,8,9-tetrahydro-3H-pyrazolo[4,3-f]isoquinolin-6-yl)-3-mcthoxyphenyl)-1-oxa-8-azaspiro[4.5]decan-3-yl)methyl)-1-oxo-1,3,5,5a,6,7,8,9-octahydro-2H-pyrazino[1′,2′:4,5][1,4]oxazino[2,3-e]isoindol-2-yl)piperidine-2,6-dione] | < 10 nM | < 1 nM |
| C[C@@H]1Cc2c(ccc3[nH]ncc23)[C@@H](c2ccc(N3CCC4(CC3)CC(CN3CCN5c6ccc7c(c6OC[C@H]5C3)CN(C3CCC(=O)NC3=O)C7=O)C4)cn2)N1CC(F)(F)F (stereo partly drawn) [Compound B106, 3-((R)-7-((7-(6-((6S,8R)-8-methyl-7-(2,2,2-trifluoroethyl)-6,7,8,9-tetrahydro-3H-pyrazolo[4,3-f]isoquinolin-6-yl)pyridin-3-yl)-7-azaspiro[3.5]nonan-2-yl)mcthyl)-1-oxo-1,3,5,5a,6,7,8,9-octahydro-2H-pyrazino[1′,2′:4,5][1,4]oxazino[2,3-e]isoindol-2-yl)piperidine-2,6-dione] | < 10 nM | < 1 nM |
| C[C@H]1Cc2c(ccc3[nH]ncc23)[C@H](c2ccc(N3CC4(CCC(CN5CCN6c7ccc8c(c7OC[C@@H]6C5)CN([C@@H]5CCC(=O)NC5=O)C8=O)CC4)C3)cn2)N1CC(F)(F)F [Compound B124, (R)-3-((S)-7-((2-(6-((6R,8S)-8-methyl-7-(2,2,2-trifluoroethyl)-6,7,8,9-tetrahydro-3H-pyrazolo[4,3-f]isoquinolin-6-yl)pyridin-3-yl)-2-azaspiro[3.5]nonan-7-yl)methyl)-1-oxo-1,3,5,5a,6,7,8,9-octahydro-2H-pyrazino[1′,2′:4,5][1,4]oxazino[2,3-e]isoindol-2-yl)piperidine-2,6-dione] | < 10 nM | < 1 nM |
| C[C@@H]1Cc2c(ccc3[nH]ncc23)[C@@H](c2c(F)cc(N3CCC4(CN(CC(=O)N5CCN6c7cc8c(cc7OC[C@@H]6C5)C(=O)N(C5CCC(=O)NC5=O)C8)C4)C3)cc2F)N1CC(F)F (stereo partly drawn) [Compound B41, 3-((S)-3-(2-(6-(4-((6S,8R)-7-(2,2-difluoroethyl)-8-methyl-6,7,8,9-tetrahydro-3H-pyrazolo[4,3-f]isoquinolin-6-yl)-3,5-difluorophenyl)-2,6-diazaspiro[3.4]octan-2-yl)acetyl)-8-oxo-1,2,3,4,4a,5,8,10-octahydro-9H-pyrazino[1′,2′:4,5][1,4]oxazino[2,3-f]isoindol-9-yl)piperidine-2,6-dione] | < 10 nM | < 1 nM |
| C[C@@H]1Cc2c(ccc3[nH]ncc23)[C@@H](c2ccc(N3CC4(CC(CN5CCN6c7cc8c(cc7OC[C@@H]6C5)C(=O)N(C5CCC(=O)NC5=O)C8)CO4)C3)cn2)N1CC(F)(F)F (stereo partly drawn) [Compound B97, 3-((4aS)-3-((2-(6-((6S,8R)-8-methyl-7-(2,2,2-trifluoroethyl)-6,7,8,9-tetrahydro-3H-pyrazolo[4,3-f]isoquinolin-6-yl)pyridin-3-yl)-5-oxa-2-azaspiro[3.4]octan-7-yl)methyl)-8-oxo-1,2,3,4,4a,5,8,10-octahydro-9H-pyrazino[1′,2′:4,5][1,4]oxazino[2,3-f]isoindol-9-yl)piperidine-2,6-dione] | < 10 nM | < 1 nM |
| C[C@H]1Cc2c(ccc3[nH]ncc23)[C@H](c2ccc(NC3CN(CC(=O)N4CCN5c6cc7c(cc6OC[C@@H]5C4)C(=O)N(C4CCC(=O)NC4=O)C7)C3)cn2)N1CC(F)(F)F (stereo partly drawn) [Compound B43, 3-((S)-3-(2-(3-((6-((6R,8S)-8-methyl-7-(2,2,2-trifluoroethyl)-6,7,8,9-tetrahydro-3H-pyrazolo[4,3-f]isoquinolin-6-yl)pyridin-3-yl)amino)azetidin-1-yl)acetyl)-8-oxo-1,2,3,4,4a,5,8,10-octahydro-9H-pyrazino[1′,2′:4,5][1,4]oxazino[2,3-f]isoindol-9-yl)piperidine-2,6-dione] | 10 to 100 nM | 1 to 10 nM |
